In the kinase profiling compilation of Christmann-Franck et al. (2016):

What was measured:
Assay in all cases: radiometric filter-binding kinase assay, Kinase HotSpot
Settings in all cases: compound 0.5 µM; ATP 10 µM
CAMK2B (human) = CAMK2B (human) (UniProt Q13554)
BRSK2 (human) = BRSK2 (human) (UniProt Q8IWQ3)
MAPKAPK5 (human) = MAPKAPK5 (human) (UniProt Q8IW41)
NTRK3 (human) = NTRK3 (human) (UniProt Q16288)
MAPK1 (human) = MAPK1 (human) (UniProt P28482)
PHKG1 (human) = PHKG1 (human) (UniProt Q16816)
BLK (human) = BLK (human) (UniProt P51451)
DCLK2 (human) = DCLK2 (human) (UniProt Q8N568)
IKBKB (human) = IKBKB (human) (UniProt O14920)
TAOK1 (human) = TAOK1 (human) (UniProt Q7L7X3)
Sequence of TAOK1 (human) (Q7L7X3 whole entry, looked up): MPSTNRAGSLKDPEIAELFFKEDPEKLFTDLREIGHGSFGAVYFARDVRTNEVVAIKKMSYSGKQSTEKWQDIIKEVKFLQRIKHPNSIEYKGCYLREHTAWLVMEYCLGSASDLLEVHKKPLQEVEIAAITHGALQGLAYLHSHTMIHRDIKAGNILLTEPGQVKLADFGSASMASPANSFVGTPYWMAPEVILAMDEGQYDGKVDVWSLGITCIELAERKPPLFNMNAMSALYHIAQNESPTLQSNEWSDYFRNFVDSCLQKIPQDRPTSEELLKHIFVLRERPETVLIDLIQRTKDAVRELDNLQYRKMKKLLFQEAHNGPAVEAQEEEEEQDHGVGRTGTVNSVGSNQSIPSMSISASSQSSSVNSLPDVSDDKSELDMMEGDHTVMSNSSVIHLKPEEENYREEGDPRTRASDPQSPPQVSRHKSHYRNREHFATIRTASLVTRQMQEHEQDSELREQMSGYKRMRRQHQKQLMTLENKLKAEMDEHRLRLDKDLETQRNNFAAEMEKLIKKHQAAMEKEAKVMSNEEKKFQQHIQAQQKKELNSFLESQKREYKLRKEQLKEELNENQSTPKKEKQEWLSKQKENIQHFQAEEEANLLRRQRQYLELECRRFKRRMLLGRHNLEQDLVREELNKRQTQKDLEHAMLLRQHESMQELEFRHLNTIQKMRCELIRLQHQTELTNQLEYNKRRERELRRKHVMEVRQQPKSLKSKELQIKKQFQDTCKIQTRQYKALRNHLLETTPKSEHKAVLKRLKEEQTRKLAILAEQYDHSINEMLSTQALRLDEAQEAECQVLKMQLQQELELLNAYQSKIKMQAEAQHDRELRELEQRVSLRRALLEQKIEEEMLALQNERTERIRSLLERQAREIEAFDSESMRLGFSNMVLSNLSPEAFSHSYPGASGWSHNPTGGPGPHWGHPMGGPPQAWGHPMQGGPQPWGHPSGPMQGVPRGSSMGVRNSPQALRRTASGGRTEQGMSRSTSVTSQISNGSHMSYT

WEE1 (human) = WEE1 (human) (UniProt P30291)
DDR2 (human) = DDR2 (human) (UniProt Q16832)
FGFR1 (human) = FGFR1 (human) (UniProt P11362)
MKNK2 (human) = MKNK2 (human) (UniProt Q9HBH9)
CSNK2A1 (human) = CSNK2A1 (human) (UniProt P68400)
Sequence of CSNK2A1 (human) (P68400 whole entry, looked up): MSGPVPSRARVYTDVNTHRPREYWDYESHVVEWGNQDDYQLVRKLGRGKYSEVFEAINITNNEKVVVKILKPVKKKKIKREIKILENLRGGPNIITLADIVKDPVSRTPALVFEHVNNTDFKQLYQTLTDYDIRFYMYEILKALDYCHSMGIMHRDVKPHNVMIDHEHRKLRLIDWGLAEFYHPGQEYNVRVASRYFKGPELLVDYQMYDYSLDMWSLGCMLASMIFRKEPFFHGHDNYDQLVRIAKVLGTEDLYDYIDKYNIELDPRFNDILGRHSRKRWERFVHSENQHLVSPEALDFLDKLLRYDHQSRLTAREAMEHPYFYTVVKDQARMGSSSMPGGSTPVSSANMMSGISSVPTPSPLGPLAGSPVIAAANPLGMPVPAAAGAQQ

GRK4 (human) = GRK4 (human) (UniProt P32298)
Sequence of GRK4 (human) (P32298 whole entry, looked up): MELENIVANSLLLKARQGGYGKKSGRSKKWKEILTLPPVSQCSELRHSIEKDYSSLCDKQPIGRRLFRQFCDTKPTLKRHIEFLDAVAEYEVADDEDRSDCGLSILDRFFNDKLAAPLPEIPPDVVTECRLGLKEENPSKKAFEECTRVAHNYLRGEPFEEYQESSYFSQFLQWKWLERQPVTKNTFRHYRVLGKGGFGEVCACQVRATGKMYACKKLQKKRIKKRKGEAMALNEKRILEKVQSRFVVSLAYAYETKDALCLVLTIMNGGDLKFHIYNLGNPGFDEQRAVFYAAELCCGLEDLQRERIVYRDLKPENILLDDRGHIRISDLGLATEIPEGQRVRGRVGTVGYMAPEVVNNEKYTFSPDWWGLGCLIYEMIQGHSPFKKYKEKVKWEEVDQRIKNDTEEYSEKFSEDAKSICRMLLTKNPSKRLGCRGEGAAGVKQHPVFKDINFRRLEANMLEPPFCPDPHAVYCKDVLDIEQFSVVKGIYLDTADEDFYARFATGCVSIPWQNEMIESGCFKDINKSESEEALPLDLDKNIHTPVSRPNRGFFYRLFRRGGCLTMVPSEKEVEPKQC

CDK3 CCNE1 (human) = CDK3 CCNE1 (human) (UniProt Q00526+P24864)
STK24 (human) = STK24 (human) (UniProt Q9Y6E0)
AURKA (human) = AURKA (human) (UniProt O14965)
YES1 (human) = YES1 (human) (UniProt P07947)
PRKCH (human) = PRKCH (human) (UniProt P24723)
STK17A (human) = STK17A (human) (UniProt Q9UEE5)
TAOK2 (human) = TAOK2 (human) (UniProt Q9UL54)
ABL1 (human) = ABL1 (human) (UniProt P00519)
MLTK (human) = MLTK (human) (UniProt Q9NYL2)
TXK (human) = TXK (human) (UniProt P42681)
RPS6KA6 KD1 KD2 (human) = RPS6KA6 KD1 KD2 (human) (UniProt Q9UK32)
TYRO3 (human) = TYRO3 (human) (UniProt Q06418)
Sequence of TYRO3 (human) (Q06418 whole entry, looked up): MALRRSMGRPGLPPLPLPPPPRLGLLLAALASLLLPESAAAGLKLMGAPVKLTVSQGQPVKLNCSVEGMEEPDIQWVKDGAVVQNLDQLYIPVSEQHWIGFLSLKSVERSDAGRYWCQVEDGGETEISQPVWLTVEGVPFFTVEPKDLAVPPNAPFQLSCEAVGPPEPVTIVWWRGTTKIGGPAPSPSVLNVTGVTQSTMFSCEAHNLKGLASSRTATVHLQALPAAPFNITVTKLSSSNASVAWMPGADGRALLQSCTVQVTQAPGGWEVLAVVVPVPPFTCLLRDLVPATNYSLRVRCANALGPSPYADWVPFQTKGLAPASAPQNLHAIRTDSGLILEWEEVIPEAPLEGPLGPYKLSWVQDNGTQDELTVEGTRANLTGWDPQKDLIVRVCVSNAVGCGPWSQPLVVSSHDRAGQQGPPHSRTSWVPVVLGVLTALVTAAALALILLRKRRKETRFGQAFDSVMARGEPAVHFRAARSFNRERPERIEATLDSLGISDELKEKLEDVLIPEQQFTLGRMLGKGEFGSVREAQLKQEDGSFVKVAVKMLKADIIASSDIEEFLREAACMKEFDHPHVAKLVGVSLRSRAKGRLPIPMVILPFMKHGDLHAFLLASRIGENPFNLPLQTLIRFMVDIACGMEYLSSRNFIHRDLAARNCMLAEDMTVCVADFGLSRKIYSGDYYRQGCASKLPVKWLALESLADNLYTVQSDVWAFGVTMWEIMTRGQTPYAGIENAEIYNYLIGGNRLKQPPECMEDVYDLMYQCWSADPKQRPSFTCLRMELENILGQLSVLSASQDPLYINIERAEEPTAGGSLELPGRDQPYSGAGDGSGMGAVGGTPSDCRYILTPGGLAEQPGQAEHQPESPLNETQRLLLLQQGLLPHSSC

RPS6KB2 (human) = RPS6KB2 (human) (UniProt Q9UBS0)
RPS6KA4 KD2 (human) = RPS6KA4 KD2 (human) (UniProt O75676)
LTK (human) = LTK (human) (UniProt P29376)
RET (human) = RET (human) (UniProt P07949)
ULK2 (human) = ULK2 (human) (UniProt Q8IYT8)
Sequence of ULK2 (human) (Q8IYT8 whole entry, looked up): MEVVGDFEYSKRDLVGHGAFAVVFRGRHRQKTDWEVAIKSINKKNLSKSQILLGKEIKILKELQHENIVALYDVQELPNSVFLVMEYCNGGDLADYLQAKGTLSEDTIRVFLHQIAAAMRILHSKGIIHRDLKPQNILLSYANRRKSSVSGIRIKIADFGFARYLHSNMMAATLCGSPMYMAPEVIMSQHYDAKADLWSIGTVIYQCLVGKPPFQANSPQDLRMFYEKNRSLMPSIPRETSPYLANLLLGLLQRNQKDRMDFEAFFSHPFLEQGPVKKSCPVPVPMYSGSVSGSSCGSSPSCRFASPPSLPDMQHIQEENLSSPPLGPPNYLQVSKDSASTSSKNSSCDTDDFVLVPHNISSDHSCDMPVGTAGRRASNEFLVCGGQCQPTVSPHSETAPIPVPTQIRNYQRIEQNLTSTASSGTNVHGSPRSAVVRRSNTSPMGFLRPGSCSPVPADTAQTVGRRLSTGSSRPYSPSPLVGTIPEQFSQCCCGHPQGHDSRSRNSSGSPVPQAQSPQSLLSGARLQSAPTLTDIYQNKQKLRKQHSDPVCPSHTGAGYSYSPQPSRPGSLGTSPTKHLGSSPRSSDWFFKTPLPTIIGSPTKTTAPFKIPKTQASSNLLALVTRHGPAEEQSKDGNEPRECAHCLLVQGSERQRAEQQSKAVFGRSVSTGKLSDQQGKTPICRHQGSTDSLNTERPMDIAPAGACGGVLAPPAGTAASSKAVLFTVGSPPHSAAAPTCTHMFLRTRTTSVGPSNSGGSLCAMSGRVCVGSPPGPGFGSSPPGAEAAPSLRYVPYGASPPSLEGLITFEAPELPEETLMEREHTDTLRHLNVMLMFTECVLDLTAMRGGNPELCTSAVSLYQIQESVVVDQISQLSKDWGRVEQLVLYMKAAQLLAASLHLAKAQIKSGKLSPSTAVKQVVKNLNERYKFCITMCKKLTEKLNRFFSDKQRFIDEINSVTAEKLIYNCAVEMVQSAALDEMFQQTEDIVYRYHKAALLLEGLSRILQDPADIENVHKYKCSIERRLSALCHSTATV

CDK4 CCND1 (human) = CDK4 CCND1 (human) (UniProt P24385+P11802)
PRKCD (human) = PRKCD (human) (UniProt Q05655)
EPHB3 (human) = EPHB3 (human) (UniProt P54753)
CLK3 (human) = CLK3 (human) (UniProt P49761)
Sequence of CLK3 (human) (P49761 whole entry, looked up): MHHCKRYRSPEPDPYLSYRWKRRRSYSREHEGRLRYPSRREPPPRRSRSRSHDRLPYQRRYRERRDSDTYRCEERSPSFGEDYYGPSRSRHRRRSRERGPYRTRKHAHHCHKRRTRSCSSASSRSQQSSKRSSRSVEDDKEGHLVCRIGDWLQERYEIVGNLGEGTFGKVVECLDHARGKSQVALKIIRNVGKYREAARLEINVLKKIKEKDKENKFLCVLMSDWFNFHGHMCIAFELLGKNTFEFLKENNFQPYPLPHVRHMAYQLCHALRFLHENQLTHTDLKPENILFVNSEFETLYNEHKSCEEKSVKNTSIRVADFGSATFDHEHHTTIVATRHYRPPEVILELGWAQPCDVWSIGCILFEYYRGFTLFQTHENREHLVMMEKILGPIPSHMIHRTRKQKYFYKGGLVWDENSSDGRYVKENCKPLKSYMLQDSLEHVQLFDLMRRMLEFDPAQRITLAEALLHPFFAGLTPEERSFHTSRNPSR

NEK4 (human) = NEK4 (human) (UniProt P51957)
MAPKAPK2 (human) = MAPKAPK2 (human) (UniProt P49137)
RPS6KA1 KD1 KD2 (human) = RPS6KA1 KD1 KD2 (human) (UniProt Q15418)
MAPK14 (human) = MAPK14 (human) (UniProt Q16539)
RPS6KA2 KD1 KD2 (human) = RPS6KA2 KD1 KD2 (human) (UniProt Q15349)

Sequence of MAPK1 (human) (P28482 whole entry, looked up): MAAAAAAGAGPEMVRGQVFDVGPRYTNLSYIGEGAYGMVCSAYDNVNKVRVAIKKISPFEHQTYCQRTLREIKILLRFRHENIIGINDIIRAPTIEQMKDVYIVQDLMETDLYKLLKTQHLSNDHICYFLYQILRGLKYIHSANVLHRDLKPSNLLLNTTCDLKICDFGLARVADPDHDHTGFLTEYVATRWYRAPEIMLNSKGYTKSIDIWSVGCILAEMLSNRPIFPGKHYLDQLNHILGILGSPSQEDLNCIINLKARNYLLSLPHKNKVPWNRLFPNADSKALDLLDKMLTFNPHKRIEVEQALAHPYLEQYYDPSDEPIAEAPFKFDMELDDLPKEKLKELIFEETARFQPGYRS

Compound `O=C(O)/C=C/c1cc(Br)c(Br)c(Br)c1Br` has a residual activity (CAMK2B (human)) of 56.1%, a residual activity (BRSK2 (human)) of 91.1% and a residual activity (MAPKAPK5 (human)) of 72.6%. The residual activity (NTRK3 (human)) was 90.6%, the residual activity (MAPK1 (human)) was 98.5% and the residual activity (PHKG1 (human)) was 87.6%. It also gave a residual activity (BLK (human)) of 95.1%, a residual activity (DCLK2 (human)) of 94.8% and a residual activity (IKBKB (human)) of 95.7%. For the same compound, the residual activity (TAOK1 (human)) was 56.3%, the residual activity (WEE1 (human)) was 99.1% and the residual activity (DDR2 (human)) was 94.3%. The residual activity (FGFR1 (human)) was 95.2%, the residual activity (MKNK2 (human)) was 53.8% and the residual activity (CSNK2A1 (human)) was 13.1%. The residual activity (GRK4 (human)) was 101%, the residual activity (CDK3 CCNE1 (human)) was 98.3% and the residual activity (STK24 (human)) was 86.1%. The residual activity (AURKA (human)) was 77.2%, the residual activity (YES1 (human)) was 96.9% and the residual activity (PRKCH (human)) was 83.7%. For the same compound, the residual activity (STK17A (human)) was 84.6%, the residual activity (TAOK2 (human)) was 88.9% and the residual activity (ABL1 (human)) was 81.5%. It also gave a residual activity (MLTK (human)) of 89.4%, a residual activity (TXK (human)) of 98.7% and a residual activity (RPS6KA6 KD1 KD2 (human)) of 86.9%. For the same compound, the residual activity (TYRO3 (human)) was 93.3%, the residual activity (RPS6KB2 (human)) was 93.8% and the residual activity (RPS6KA4 KD2 (human)) was 103%. The residual activity (LTK (human)) was 94.5%, the residual activity (RET (human)) was 76.4% and the residual activity (ULK2 (human)) was 80.3%. It also gave a residual activity (CDK4 CCND1 (human)) of 89.3%, a residual activity (PRKCD (human)) of 93.9% and a residual activity (EPHB3 (human)) of 89.8%. The residual activity (CLK3 (human)) was 96.1%, the residual activity (NEK4 (human)) was 54.6% and the residual activity (MAPKAPK2 (human)) was 91.5%. The residual activity (RPS6KA1 KD1 KD2 (human)) was 90.5%, the residual activity (MAPK14 (human)) was 99.5% and the residual activity (RPS6KA2 KD1 KD2 (human)) was 75.8%.

`Cn1nc2c3c(cccc31)C(=O)c1ccccc1-2` gave a residual activity (CAMK2B (human)) of 95.3%, a residual activity (BRSK2 (human)) of 96.4% and a residual activity (MAPKAPK5 (human)) of 94.5%. It also gave a residual activity (NTRK3 (human)) of 71.6%, a residual activity (MAPK1 (human)) of 91.7% and a residual activity (PHKG1 (human)) of 86.4%. The residual activity (BLK (human)) was 106%, the residual activity (DCLK2 (human)) was 94.2% and the residual activity (IKBKB (human)) was 103%. The residual activity (TAOK1 (human)) was 100%, the residual activity (WEE1 (human)) was 92.3% and the residual activity (DDR2 (human)) was 95.1%. For the same compound, the residual activity (FGFR1 (human)) was 99.5%, the residual activity (MKNK2 (human)) was 94.1% and the residual activity (CSNK2A1 (human)) was 90.2%. For the same compound, the residual activity (GRK4 (human)) was 105%, the residual activity (CDK3 CCNE1 (human)) was 87.5% and the residual activity (STK24 (human)) was 98.6%. For the same compound, the residual activity (AURKA (human)) was 89.4%, the residual activity (YES1 (human)) was 94.5% and the residual activity (PRKCH (human)) was 94.3%. It also gave a residual activity (STK17A (human)) of 83.7%, a residual activity (TAOK2 (human)) of 104% and a residual activity (ABL1 (human)) of 99.1%. For the same compound, the residual activity (MLTK (human)) was 83.1%, the residual activity (TXK (human)) was 92% and the residual activity (RPS6KA6 KD1 KD2 (human)) was 90.4%. For the same compound, the residual activity (TYRO3 (human)) was 99.8%, the residual activity (RPS6KB2 (human)) was 94.7% and the residual activity (RPS6KA4 KD2 (human)) was 105%. The residual activity (LTK (human)) was 86.7%, the residual activity (RET (human)) was 83.8% and the residual activity (ULK2 (human)) was 109%. For the same compound, the residual activity (CDK4 CCND1 (human)) was 98.9%, the residual activity (PRKCD (human)) was 92.3% and the residual activity (EPHB3 (human)) was 85.5%. The residual activity (CLK3 (human)) was 98.5%, the residual activity (NEK4 (human)) was 89.8% and the residual activity (MAPKAPK2 (human)) was 102%. The residual activity (RPS6KA1 KD1 KD2 (human)) was 93.7%, the residual activity (MAPK14 (human)) was 93.6% and the residual activity (RPS6KA2 KD1 KD2 (human)) was 93.5%.
